Source: US20220057377A1, “ANALYTICAL METHOD FOR DETERMINATION OF IN VITRO DRUG RELEASE PROFILE FROM MICRONEEDLE PATCHES” (ZOSANO PHARMA CORPORATION, priority 2020, published 2022)
In brackets after ≈: the same amount, converted by molar mass. Several values for one entry are separate records, joined by “and”; a condition that tells them apart may be missing. Equal values may be shown once. Read-outs that look alike come from different tables or passages of the source.

Assays:
[1] = Stability of zolmitriptan in 10 mM PBS release media; type: physicochemical
Method: In order for the drug to have fully released from the patches, a complete release time of 22 hours was noted. Therefore, stability of zolmitriptan in the release medium was evaluated for up to 24 hours.

[2] = cited from earlier work
[3] = Sink condition; type: physicochemical
Method: The sink condition is defined as having a volume of medium at least three times that required to form a saturated solution of drug substance. […] The microneedle patch is coated with a specific amount (mg) of the bioactive agent and is intended to deliver a certain percentage of the drug. Based on the data from the solubility study described above, the sink condition can be met by various media.
The M207 patch is coated with 1.9 mg of zolmitriptan and is intended to deliver 100% of the drug. The mean drug content specification is 90.0%-110.0% of 1.9 mg. Based on the data from the solubility study, the sink condition was met for both the water and 10 mM PBS medium when applying volume of release medium of >6 mL. This is greater than three times the saturated solution in PBS (˜1.6 mL) for 1.9 mg of zolmitriptan released from the M207 patch.

[4] = Solubility of zolmitriptan at room temperature in PBS, water and IPA (in-house); type: physicochemical
Method: The solubility of zolmitriptan at room temperature in phosphate buffer saline (PBS), water, and isopropyl alcohol (IPA) were evaluated in-house. Zolmitriptan API was added into 200 mL of water, 10 mM phosphate buffer saline (PBS) at pH 7.4, and IPA until saturated. The solutions were then mixed at room temperature by stir bar overnight. Saturated solutions at 2 and 24 hours were filtered and analyzed for drug concentration by HPLC.

[5] = Sample solution stability at 2-8° C.; type: physicochemical
Method: Sample solutions containing the released drug after the drug release tests were stored at 2-8° C. for a few days and injected to check the stability of the solution. Six sample solutions from each time points were aliquoted from release test tube and stored in refrigerator at 2-8 C for 15 days before being analyzed by HPLC. […] For the solution concentration is close to 1×-5× of the quantitation limit, 85%-115% recovery from fresh sample is considered reasonable.

CN(C)CCc1c[nH]c2ccc(C[C@H]3COC(=O)N3)cc12 [zolmitriptan]
After 24 hours at 32° C. Concentration ([1]; T0 Concentration 0.49 μg/mL): 0.50 µg/mL
After 24 hours at 32° C. Concentration ([1]; T0 Concentration 5.00 μg/mL): 5.02 µg/mL
After 24 hours at 32° C. Concentration ([1]; T0 Concentration 335.94 μg/mL): 335.94 µg/mL
stability in release media ([1]; up to 24 hours at 32° C.): remained stable
volume of solution in which each gram of solute dissolved ([2]; aqueous solution, pH range 4-14): ~10,000 mL
Approximate volume of solvent in mL per gram of solute ([2]; pH 1): From 10 to 30 mL per gram of solute
Descriptive Term (solubility) ([2]; pH 1): Soluble
Approximate volume of solvent in mL per gram of solute ([2]; pH 2): From 100 to 500 mL per gram of solute
Descriptive Term (solubility) ([2]; pH 2): Slightly soluble
Approximate volume of solvent in mL per gram of solute ([2]; pH 3): More than 10,000 mL per gram of solute
Descriptive Term (solubility) ([2]; pH 3): Practically insoluble
Approximate volume of solvent in mL per gram of solute ([2]; pH 4): More than 10,000 mL per gram of solute
Descriptive Term (solubility) ([2]; pH 4): Practically insoluble
Approximate volume of solvent in mL per gram of solute ([2]; pH 7): More than 10,000 mL per gram of solute
Descriptive Term (solubility) ([2]; pH 7): Practically insoluble
Approximate volume of solvent in mL per gram of solute ([2]; pH 14): More than 10,000 mL per gram of solute
Descriptive Term (solubility) ([2]; pH 14): Practically insoluble
solubility in aqueous solution (descriptive) ([2]; pH range 4-14): slightly soluble to very slightly soluble
volume of saturated solution in PBS ([3]; for 1.9 mg of zolmitriptan released from the M207 patch): ~1.6 mL
volume of release medium at which sink condition was met ([3]; water and 10 mM PBS medium, 1.9 mg zolmitriptan): > 6 mL
solubility ([4]; 10 mM PBS, pH 7.4, aqueous buffer, thermodynamic from solid): ~1200 µg/mL (≈ 4.18 mM)
Zolmitriptan Concentration (saturated solution) ([4]; 10 mM PBS, pH 7.4, mixed 24 hours, room temperature): 1213.19 µg/mL
solubility thermodynamic at 2 h ([4]; 10 mM phosphate buffer saline, aqueous buffer, thermodynamic from solid, 10 mM PBS, pH 7.4, mixed 2 hours, room temperature, read-out: Zolmitriptan Concentration (saturated solution)): 1240 µg/mL (≈ 4.3 mM)
Zolmitriptan Concentration (saturated solution) ([4]; 100% IPA, mixed 2 hours, room temperature): 1691.82 µg/mL
Zolmitriptan Concentration (saturated solution) ([4]; HPLC grade Water, mixed 2 hours, room temperature): 944.05 µg/mL
Zolmitriptan Concentration (saturated solution) ([4]; HPLC grade Water, mixed 24 hours, room temperature): 1061.33 µg/mL
solubility ([4]; isopropyl alcohol (IPA), organic solvent or mixture, thermodynamic from solid): ~1700 µg/mL (≈ 5.92 mM)
solubility ([4]; water, thermodynamic from solid): ~1000 µg/mL (≈ 3.48 mM)
Drug Amount ([5]; T = 15 days at 2-8 C, 1 hour release time point, Average of 6): 0.22 mg
Drug Amount ([5]; T = 15 days at 2-8 C, 1 hour release time point, individual sample): 0.22 mg and 0.20 mg (2×) and 0.25 mg and 0.23 mg and 0.21 mg
Drug Amount ([5]; T = 15 days at 2-8 C, 2 hours release time point, Average of 6): 0.33 mg
Drug Amount ([5]; T = 15 days at 2-8 C, 2 hours release time point, individual sample): 0.33 mg (3×) and 0.35 mg and 0.32 mg (2×)
Drug Amount ([5]; T = 15 days at 2-8 C, 3 hours release time point, Average of 6): 0.29 mg
Drug Amount ([5]; T = 15 days at 2-8 C, 3 hours release time point, individual sample): 0.29 mg (2×) and 0.31 mg and 0.30 mg and 0.26 mg (2×)
Drug Amount ([5]; T = 15 days at 2-8 C, 5 hours release time point, Average of 6): 0.42 mg
Drug Amount ([5]; T = 15 days at 2-8 C, 5 hours release time point, individual sample): 0.41 mg and 0.48 mg and 0.44 mg and 0.36 mg and 0.42 mg and 0.38 mg
Drug Amount ([5]; T = 15 days at 2-8 C, 12 hours release time point, Average of 6): 0.63 mg
Drug Amount ([5]; T = 15 days at 2-8 C, 12 hours release time point, individual sample): 0.60 mg and 0.83 mg and 0.76 mg and 0.46 mg and 0.64 mg and 0.51 mg
Drug Amount ([5]; T = 15 days at 2-8 C, 22 hours release time point, Average of 6): 0.18 mg
Drug Amount ([5]; T = 15 days at 2-8 C, 22 hours release time point, individual sample): 0.15 mg and 0.28 mg and 0.25 mg and 0.10 mg and 0.17 mg and 0.12 mg
Drug Amount ([5]; Time Zero, 1 hour release time point, Average of 6): 0.21 mg
Drug Amount ([5]; Time Zero, 2 hours release time point, Average of 6): 0.33 mg
Drug Amount ([5]; Time Zero, 3 hours release time point, Average of 6): 0.28 mg
Drug Amount ([5]; Time Zero, 5 hours release time point, Average of 6): 0.41 mg
Drug Amount ([5]; Time Zero, 12 hours release time point, Average of 6): 0.63 mg
Drug Amount ([5]; Time Zero, 22 hours release time point, Average of 6): 0.17 mg
Drug Amount ([5]; Time Zero, sample solution of 1 hour release time point, individual sample): 0.21 mg and 0.2 mg (2×) and 0.19 mg and 0.24 mg and 0.22 mg
Drug Amount ([5]; Time Zero, sample solution of 2 hours release time point, individual sample): 0.33 mg (2×) and 0.34 mg and 0.32 mg (2×) and 0.31 mg
Drug Amount ([5]; Time Zero, sample solution of 3 hours release time point, individual sample): 0.28 mg (3×) and 0.3 mg and 0.26 mg (2×)
Drug Amount ([5]; Time Zero, sample solution of 5 hours release time point, individual sample): 0.41 mg and 0.48 mg and 0.43 mg and 0.36 mg and 0.42 mg and 0.37 mg
Drug Amount ([5]; Time Zero, sample solution of 12 hours release time point, individual sample): 0.59 mg and 0.85 mg and 0.75 mg and 0.45 mg and 0.63 mg and 0.51 mg
Drug Amount ([5]; Time Zero, sample solution of 22 hours release time point, individual sample): 0.15 mg and 0.27 mg and 0.24 mg and 0.09 mg and 0.17 mg and 0.12 mg
